Measurements reported in patent publication US20130129667A1, “Attractant compounds for yellow jacket wasps” (priority 2007, published 2013).

Legend:
Assay type in all cases: in vivo
Vespula germanica = test: Field trap catch of yellow jacket wasps with attractant
Method: (§1) On the top inside of the bottle, 2 cm below the cap 17, a 10 ml 'micro' glass vial 19 was installed. In this small container, 0.1 ml of an attractive compound 20 was deposited. In the bottom of the 500 ml bottle, 200 ml of water with liquid household detergent 22 was placed. The traps 10 or containers with the attractant 20, were placed randomly in different species of trees, mostly 'thorns,' Acacia […] Tebo, […] Lo Orozco, and apple trees in Casablanca (Chile), each hung from a wire 24, at a height of about 11⁄2 m from the ground, with a separation between them of about 10 m. […] The traps 10 were placed in Catapilco in the […] farm the 19th of February 2007, in the geographical locations of 33° 37' 06'' S. and 71° 19' 14'' O, for the Campo Lindo farm in Casablanca in 33° 14' 23'' S. and 71° 17' 37'' O on the 20th of February 2007 and Lo Orozco in 33° 13'26'' S. and 71° 24' 04'' O the 9th of April 2007. […] In the extent it was necessary the containers were filled up with water and detergent.

Other insects = test: Field trap catch of other insects (selectivity)
Method: as §1

Bees = test: Field trap catch of bees (selectivity); details: Lo Orozco; 21 days; five containers per attractant
Method: (§2) On the top inside of the bottle, 2 cm below the cap 17, a 10 ml 'micro' glass vial 19 was installed. In this small container, 0.1 ml of an attractive compound 20 was deposited. In the bottom of the 500 ml bottle, 200 ml of water with liquid household detergent 22 was placed. The traps 10 or containers with the attractant 20, were placed randomly in different species of trees, mostly 'thorns,' Acacia […] Tebo, […] Lo Orozco, and apple trees in Casablanca (Chile), each hung from a wire 24, at a height of about 11⁄2 m from the ground, with a separation between them of about 10 m. Two replications were used per each attractant in Catapilco, and five replications in Lo Orozco and Casablanca. The traps 10 were placed in Catapilco in the […] farm the 19th of February 2007, in the geographical locations of 33° 37' 06'' S. and 71° 19' 14'' O, for the Campo Lindo farm in Casablanca in 33° 14' 23'' S. and 71° 17' 37'' O on the 20th of February 2007 and Lo Orozco in 33° 13'26'' S. and 71° 24' 04'' O the 9th of April 2007. […] In the extent it was necessary the containers were filled up with water and detergent.

Polistes = test: Field trap catch of Polistes (selectivity); details: Lo Orozco; 21 days; five containers per attractant
Method: as §2

[1] = Campo Lindo farm, Casablanca, 18 days, two containers per attractant, 0.1 ml
[2] = Manantiales farm, Catapilco, 17 days, two containers per attractant, 0.1 ml
[3] = Lo Orozco, 21 days, five containers per attractant

Row | SMILES | Total number of V. germanica workers captured (Vespula germanica; [1]) | Total number of V. germanica workers captured (Vespula germanica; [2]) | Total number of other insects captured (Other insects; [1]) | Total number of other insects captured (Other insects; [2]) | Attraction compared with the standard mixture of acetic acid with isobutanol (Vespula germanica; Lo Orozco field tests) | Total number of V. germanica workers captured (Vespula germanica; [3]) | Total number of other insects captured (Other insects; [3]) | Total number of Bees captured (Bees) | Total number of Polistes captured (Polistes)
1 | CCCCCC(C)=O [2-Heptanone] | 92 | 69 | 0 | 0 | – | – | – | – | –
2 | CCCCCCC=O [Heptaldehyde] | 129 | 9 | 0 | 0 | – | – | – | – | –
3 | CCCCCCCCC=O [Nonyl aldehyde] | 97 | 1 | 0 | 3 Bees | – | – | – | – | –
4 | CCCC/C=C/C=C/C=O [Trans,trans-2,4-nonadienal] | 218 | 0 | 0 | 0 | – | – | – | – | –
5 | CCCCC/C=C/C=C/C=O [Trans,trans-2,4-decadienal] | 5 | 84 | 0 | 0 | – | – | – | – | –
6 | CCCCCCC(C)=O [2-Octanone] | 209 | 416 | 1 Moth | 0 | superior | 2.673 | 0 | 0 | 1
7 | CCCCC=O [Valeraldehyde] | 84 | 24 | 0 | 0 | – | – | – | – | –
8 | CCCCCCCC=O [Octyl aldehyde] | 101 | 3 | 0 | 0 | – | – | – | – | –
9 | CCCC/C=C/C=O [Trans-2-heptenal] | 252 | 407 | 0 | 0 | – | 999 | 0 | 0 | 0
10 | CCCCC/C=C/CO [Trans-2-octen-1-ol] | 297 | 474 | 0 | 1 Bee | – | – | 0 | 2 | 1
11 | CCCCCCCCCCCCO [1-Dodecanol] | 102 | 0 | 1 Sirfid | 0 | – | – | – | – | –
12 | CCCCCC(=O)CC [3-Octanone] | 218 | 356 | 0 | – | – | 892 | 0 | 0 | 0
13 | CCCCCCCC(C)=O [2-Nonanone] | 178 | 0 | 0 | 0 | – | – | – | – | –
